Assays:
[1] = tested on: C57/BL/6 mice; assay: Glucose tolerance test with normal mice (CC1, CC3, CC19); type: in vivo
Protocol: C57/BL/6 female mice weighing 22-23-g and fasted for 14 hours before intraperitoneal (i.p.) administration of glucose (3-g/kg) were used. None of the animals received any food during the experiment other than glucose. The animals received i.p. injections of 4.5-mg/kg of CCcompound1, CCcompound3, or CCcompound19 either 1 hour or 24 hours prior to glucose administration as indicated in TABLE 3. Blood samples were taken from the eyes (canthus), and glucose concentrations in whole blood samples were immediately measured with the Fast Glucose C test. Each group included six animals. The data, shown in TABLE 3, are the mean±std. dev. of 6 determinations, i.e. one determination with each of the six animals. In this and all subsequent experiments the values at 0 min reflect glucose concentration in blood samples collected 1-5 minutes prior to the administration of glucose.

[2] = tested on: C57/BL/6 mice; assay: Glucose tolerance test with normal mice, CCcompound1 and sub-optimal insulin; type: in vivo; details: CCcompound1 4.5-mg/kg i.p. 60 min and/or insulin 0.02 IU 15 min prior to glucose
Protocol: In this experiment, a sub-optimal dose of insulin (0.02 international unit-IU) was used to probe if CCcompound1 indeed can enhance the effect of insulin on blood glucose. Again C57/BL/6 female mice weighing 22-23-g and fasted for 14 hours prior to i.p. glucose administration (3-g/kg), were used. None of the animals received any food during the experiment other than glucose. The animals received i.p. injections of 4.5-mg/kg of CCcompound1 and/or 0.02 Unit insulin 60 min and 15 min prior to glucose administration, respectively. Blood samples were taken and glucose concentrations measured as indicated earlier. Each group included six animals. The data are the mean±std. dev. of 6 determinations, i.e. one determination with each of the six animals.

[3] = tested on: BDF1 (C57/BL/6 female×DBA/2 male) mice; assay: Glucose tolerance test with BDF1 mice, CCcompound1 and sub-optimal insulin; type: in vivo; details: CCcompound1 4.5-mg/kg i.p. −15 min and/or insulin 0.02 IU −10 min
Protocol: In this experiment again, a sub-optimal dose of insulin was used to probe if CCcompound1 can enhance the effect of insulin on blood glucose. This time first generation hybrid BDF1 (C57/BL/6 female×DBA/2 male) adult (10-12 weeks old) male mice weighing 28-30-g and fasted for 14 hours before i.p. glucose administration (3-g/kg) were used. These mice were […] than mice in the previous experiment described under Example 5. None of the animals received any food during the experiment other than glucose. The animals received i.p. injections of 4.5-mg/kg of CCcompound1 and 0.02 IU of insulin 15 min and 10 min prior to glucose administration. Blood samples were taken and glucose concentrations in whole blood samples determined as described earlier. Each group included six animals. The data are the mean±std. dev. of 6 determinations, i.e. one determination with each of the six animals.

[4] = tested on: C57/BL/6 mice; assay: Glucose tolerance test with normal mice, dose and time dependence of CCcompound1; type: in vivo
Protocol: Female C57/BL/6 mice weighing 22-23-g and fasted for 14 hours prior to i.p. glucose administration (3-g/kg) were used. None of the animals received any food during the experiment other than glucose. The animals received i.p. injections of 2.0 or 4.5-mg/kg of CCcompound1 either 30 min, 60 min or 120 min prior to glucose administration. Blood samples were taken and glucose concentrations were immediately measured as described earlier. Each group included six animals. The data are the mean±std. dev. of 6 determinations, i.e. one determination with each of the six animals. “-min” indicates the length of period in minutes elapsed between the administration of CCcompound1 (first) and glucose (second).

[5] = tested on: PC-3 human tumors; assay: PC-3 tumor/cachexia model: tumor weight and body weight; type: in vivo, mice
Protocol: The experimental PC-3 human tumors were developed in a homozygous line of C.B.-171 cr scid/scid adult female mice that were kept at specified pathogen free (SPF) hygienic level. Treatments with CCcompound1 (4.5 mg/kg) were started on day 12 after tumor implantation and conducted for 5+5 days with 2 treatment-free days inserted between the 2 series of treatments. A control group (10 mice) received no treatment, while another group (10 mice) received 4.5-mg/kg of CCcompound1 once every day between days 12-24. The results, shown in TABLE 8, indicate that between days 12 and 24 after tumor implantation, the prostate tumor caused about 6.9-g loss in lean body weight (4.1-g loss in total body weight). In contrast, animals treated with CCcompound1 actually gained 6.3-g lean body weight.

[6] = 4.5 mg/kg group, day 12 (start of treatment)
[7] = 4.5 mg/kg once daily days 12-24, day 24

## Cc1c(OCC(O)C[N+](C)(C)C)cc2c(=O)c3ccccc3sc2c1C.[Cl-] (centres unmarked) [CCcompound 1, [3-(3,4-Dimethyl-9-oxo-9H-thioxanthen-2-yloxy)-2-hydroxypropyl]trimethyl-ammonium chloride]
[1]; 4.5-mg/kg i.p. 1 h prior to glucose 3-g/kg i.p., 0 min
  Blood glucose: 1.3 ± 0.3 mM
[1]; 4.5-mg/kg i.p. 1 h prior to glucose, 30th min of test period
  Reduction of blood glucose level: 33%
[1]; 4.5-mg/kg i.p. 1 h prior to glucose, 30 min
  Blood glucose: 5.4 ± 0.5 mM
[1]; 4.5-mg/kg i.p. 1 h prior to glucose, 60 min
  Blood glucose: 4.3 ± 0.4 mM
[1]; 4.5-mg/kg i.p. 1 h prior to glucose, 120 min
  Blood glucose: 2.8 ± 0.2 mM
[1]; 4.5-mg/kg i.p. 1 h prior to glucose, 180 min
  Blood glucose: 2.2 ± 0.2 mM
[1]; 4.5-mg/kg i.p. 24 h prior to glucose, 0 min
  Blood glucose: 1.4 ± 0.2 mM
[1]; 4.5-mg/kg i.p. 24 h prior to glucose, 30 min
  Blood glucose: 7.0 ± 0.7 mM
[1]; 4.5-mg/kg i.p. 24 h prior to glucose, 60 min
  Blood glucose: 5.2 ± 0.4 mM
[1]; 4.5-mg/kg i.p. 24 h prior to glucose, 120 min
  Blood glucose: 3.4 ± 0.3 mM
[1]; 4.5-mg/kg i.p. 24 h prior to glucose, 180 min
  Blood glucose: 2.8 ± 0.2 mM
[1]; treatment 24 hours prior to glucose
  Glucose lowering effect: smaller and not reproducible in additional experiments
[2]; 0 min
  Blood glucose: 1.8 ± 0.4 mM
[2]; 30 min
  Blood glucose: 5.1 ± 0.5 mM
[2]; 60 min
  Blood glucose: 4.1 ± 0.4 mM
[2]; 120 min
  Blood glucose: 3.3 ± 0.3 mM
[3]; 0 min
  Blood glucose: 3.1 ± 0.2 mM
[3]; 30 min
  Blood glucose: 4.8 ± 0.3 mM
[3]; 60 min
  Blood glucose: 3.5 ± 0.2 mM
[4]; 2 mg/kg i.p. −30 min, 0 min
  Blood glucose: 1.30 ± 0.20 mM
[4]; 2 mg/kg i.p. −30 min, 30 min
  Blood glucose: 5.40 ± 0.45 mM
[4]; 2 mg/kg i.p. −30 min, 60 min
  Blood glucose: 4.15 ± 0.45 mM
[4]; 2 mg/kg i.p. −30 min, 120 min
  Blood glucose: 3.50 ± 0.30 mM
[4]; 2 mg/kg i.p. −30 min, 180 min
  Blood glucose: 2.80 ± 0.30 mM
[4]; 2 mg/kg i.p. −60 min, 0 min
  Blood glucose: 1.30 ± 0.30 mM
[4]; 2 mg/kg i.p. −60 min, 30 min
  Blood glucose: 5.70 ± 0.35 mM
[4]; 2 mg/kg i.p. −60 min, 60 min
  Blood glucose: 4.30 ± 0.30 mM
[4]; 2 mg/kg i.p. −60 min, 120 min
  Blood glucose: 3.70 ± 0.30 mM
[4]; 2 mg/kg i.p. −60 min, 180 min
  Blood glucose: 3.25 ± 0.35 mM
[4]; 4.5 mg/kg i.p. −30 min, 0 min
  Blood glucose: 1.50 ± 0.25 mM
[4]; 4.5 mg/kg i.p. −30 min, 30 min
  Blood glucose: 5.05 ± 0.20 mM
[4]; 4.5 mg/kg i.p. −30 min, 60 min
  Blood glucose: 3.55 ± 0.25 mM
[4]; 4.5 mg/kg i.p. −30 min, 120 min
  Blood glucose: 2.95 ± 0.25 mM
[4]; 4.5 mg/kg i.p. −30 min, 180 min
  Blood glucose: 1.95 ± 0.30 mM
[4]; 4.5 mg/kg i.p. −60 min, 0 min
  Blood glucose: 1.40 ± 0.25 mM
[4]; 4.5 mg/kg i.p. −60 min, 30 min
  Blood glucose: 5.25 ± 0.30 mM
[4]; 4.5 mg/kg i.p. −60 min, 60 min
  Blood glucose: 3.90 ± 0.20 mM
[4]; 4.5 mg/kg i.p. −60 min, 120 min
  Blood glucose: 3.20 ± 0.15 mM
[4]; 4.5 mg/kg i.p. −60 min, 180 min
  Blood glucose: 2.85 ± 0.15 mM
[4]; 4.5 mg/kg i.p. −120 min, 0 min
  Blood glucose: 1.35 ± 0.15 mM
[4]; 4.5 mg/kg i.p. −120 min, 30 min
  Blood glucose: 7.80 ± 0.40 mM
[4]; 4.5 mg/kg i.p. −120 min, 60 min
  Blood glucose: 5.90 ± 0.45 mM
[4]; 4.5 mg/kg i.p. −120 min, 120 min
  Blood glucose: 4.30 ± 0.40 mM
[4]; 4.5 mg/kg i.p. −120 min, 180 min
  Blood glucose: 3.00 ± 0.20 mM
[4]; administered 120 min prior to glucose
  Glucose lowering effect: practically ineffective
[5]; [6]
  Body weight (lean): 25.0 g
  Tumor weight: 0.2 ± 0.1 g
[5]; 4.5 mg/kg group, day 12 after tumor transplantation (start of treatment)
  Total weight: 25.2 ± 1.3 g
[5]; [7]
  Body weight (lean): 30.3 g
  Total weight: 31.9 ± 2.5 g
  Tumor weight: 1.6 ± 0.4 g
[5]; 4.5 mg/kg, between days 12 and 24
  Gain in lean body weight: 6.3 g
[5]; 4.5 mg/kg, days 12-24
  Reduction of tumor volume: ~50%
